Patent publication US20250320224A1 (DOMAIN THERAPEUTICS, priority 2022, published 2025)

What follows are molecules tested against T1, human PAR-2 (hPAR-2) receptor (Homo sapiens, UniProt P55085) (assay: In vitro human PAR-2 functional antagonist activity using calcium assays). Settings: hPAR-2 endogenously expressed in HEK-293 cells; stimulated by 2-Furoyl-LIGRLO-NH2 peptide; Fluo4AM intracellular calcium, FLIPR Tetra.
T1 construct: expressed in HEK-293 cells in an endogenous manner; endogenous in cells; host or cells: HEK-293
T1 sequence (P55085 26-397): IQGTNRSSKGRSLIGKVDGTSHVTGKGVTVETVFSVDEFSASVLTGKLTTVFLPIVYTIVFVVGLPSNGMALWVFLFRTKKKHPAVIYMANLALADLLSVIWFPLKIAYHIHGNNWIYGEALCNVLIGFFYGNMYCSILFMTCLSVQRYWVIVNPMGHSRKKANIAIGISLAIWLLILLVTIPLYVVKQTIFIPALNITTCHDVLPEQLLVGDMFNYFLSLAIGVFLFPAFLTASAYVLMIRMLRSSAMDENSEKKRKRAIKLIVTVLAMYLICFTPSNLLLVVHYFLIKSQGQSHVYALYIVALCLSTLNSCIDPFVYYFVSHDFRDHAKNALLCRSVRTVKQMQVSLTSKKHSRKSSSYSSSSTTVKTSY
Type: cell-based
Procedure, shortened: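 HEK-293 cells with endogenous hPAR-2 were loaded with Fluo4AM and read for intracellular Ca2+ on FLIPR. After 10 min with compound alone, cells were stimulated with 2-Furoyl-LIGRLO-NH2 at the concentration giving 80% of maximal response. Inhibition was then recorded over 5 min relative to buffer and agonist-only signals.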
An IC50 of under 500 nM was found for COC(=O)CCCCCCC(=O)N1CCN(C(=O)c2cnc3c(n2)C2(CN3c3ccc(Cl)c(F)c3)CC(C)(C)C2)C(C)(C)C1 [Example 259, methyl 8-(4-(5′-(4-chloro-3-fluorophenyl)-3,3-dimethyl-5′,6′-dihydrospiro[cyclobutane-1,7′-pyrrolo[2,3-b]pyrazine]-2′-carbonyl)-3,3-dimethylpiperazin-1-yl)-8-oxooctanoate] in this work. An IC50 of under 500 nM was found for CC1(C)CC2(CN(c3ccc(Cl)c(F)c3)c3ncc(C(=O)N4CCN(C(=O)CCCCCCC(=O)O)CC4(C)C)nc32)C1 [Example 260, 8-(4-(5′-(4-chloro-3-fluorophenyl)-3,3-dimethyl-5′,6′-dihydrospiro[cyclobutane-1,7′-pyrrolo[2,3-b]pyrazine]-2′-carbonyl)-3,3-dimethylpiperazin-1-yl)-8-oxooctanoic acid] in this work. An IC50 of 500 to 10000 nM was found for CCCCCCCCCCCCCCCC(=O)N(C)CCN(C)C(=O)CCOCCOCCOCCNC(=O)CCOCCOCCOCCNC(=O)CCCCCCC(=O)N1CCN(C(=O)c2cnc3c(n2)C2(CN3c3ccc(Cl)c(F)c3)CC(C)(C)C2)C(C)(C)C1 [Example 261, N-(37-(4-(5′-(4-chloro-3-fluorophenyl)-3,3-dimethyl-5′,6′-dihydrospiro[cyclobutane-1,7′-pyrrolo[2,3-b]pyrazine]-2′-carbonyl)-3,3-dimethylpiperazin-1-yl)-3-methyl-4,17,30,37-tetraoxo-7,10,13,20,23,26-hexaoxa-3,16,29-triazaheptatriacontyl)-N-methylpalmitamide] in this work. An IC50 of over 10000 nM was found for Cc1cc(N2CCN(C(=O)c3cnc4c(n3)C(C)(C)CN4c3ccc(Cl)c(F)c3)C(C)(C)C2)c(C(=O)O)c(C)n1 [Example 263, 4-(4-(5-(4-chloro-3-fluorophenyl)-7,7-dimethyl-6,7-dihydro-5H-pyrrolo[2,3-b]pyrazine-2-carbonyl)-3,3-dimethylpiperazin-1-yl)-2,6-dimethylnicotinic acid] in this work. An IC50 of over 10000 nM was found for CC1(C)CN(c2ccc(Cl)c(F)c2)c2ccc(C(=O)N3CCN(c4ccc(CC(=O)O)cn4)CC3(C)C)nc2O1 [Example 265, 2-(6-(4-(1-(4-chloro-3-fluorophenyl)-3,3-dimethyl-2,3-dihydro-1H-pyrido[2,3-b][1,4]oxazine-6-carbonyl)-3,3-dimethylpiperazin-1-yl)pyridin-3-yl)acetic acid] in this work. An IC50 of over 10000 nM was found for CC1(C)CC2(CN(c3ccc(Cl)c(F)c3)c3ncc(S(=O)(=O)N4CCC(N5CCNC5=O)CC4)nc32)C1 [Example 266, 1-(1-((5′-(4-chloro-3-fluorophenyl)-3,3-dimethyl-5′,6′-dihydrospiro[cyclobutane-1,7′-pyrrolo[2,3-b]pyrazin]-2′-yl)sulfonyl)piperidin-4-yl)imidazolidin-2-one] in this work. An IC50 of over 10000 nM was found for CC1(C)CN(c2ccc(Cl)c(F)c2)c2ncc(C(=O)N3CCN(c4ccc(CC(=O)O)cn4)CC3(C)C)nc2O1 [Example 268, 2-(6-(4-(4-(4-chloro-3-fluorophenyl)-2,2-dimethyl-3,4-dihydro-2H-pyrazino[2,3-b][1,4]oxazine-7-carbonyl)-3,3-dimethylpiperazin-1-yl)266yridine-3-yl)acetic acid] in this work. An IC50 of 500 to 10000 nM was found for CC1(C)CN(c2ccc(Cl)c(F)c2)Cc2sc(C(=O)N3CCN(c4ccc(CC(=O)O)cn4)CC3(C)C)nc21 [Example 270, 2-(6-(4-(5-(4-chloro-3-fluorophenyl)-7,7-dimethyl-4,5,6,7-tetrahydrothiazolo[5,4-c]pyridine-2-carbonyl)-3,3-dimethylpiperazin-1-yl)pyridin-3-yl)acetic acid] in this work. An IC50 of 500 to 10000 nM was found for CC1(C)CN(c2ccc(Cl)c(F)c2)Cc2cn(C(=O)N3CCN(c4ccc(CC(=O)O)cn4)CC3(C)C)nc21 [Example 273, 2-(6-(4-(5-(4-chloro-3-fluorophenyl)-7,7-dimethyl-4,5,6,7-tetrahydro-2H-pyrazolo[4,3-c]pyridine-2-carbonyl)-3,3-dimethylpiperazin-1-yl)pyridin-3-yl)acetic acid] in this work. An IC50 of under 500 nM was found for Cc1cc(N2CCN(C(=O)c3ccc4c(n3)C(C)(C)CN4c3ccc(C(F)(F)F)c(F)c3)C(C)(C)C2)nc(C)c1C(=O)O [Example 275, 6-(4-(1-(3-fluoro-4-(trifluoromethyl)phenyl)-3,3-dimethyl-2,3-dihydro-1H-pyrrolo[3,2-b]pyridine-5-carbonyl)-3,3-dimethylpiperazin-1-yl)-2,4-dimethylnicotinic acid] in this work. An IC50 of under 500 nM was found for Cc1cc(N2CCN(C(=O)c3cnc4c(n3)C(C)(C)CN4c3cc(F)c(F)c(F)c3)C(C)(C)C2)nc(C)c1C(=O)O [Example 277, 6-(4-(7,7-dimethyl-5-(3,4,5-trifluorophenyl)-6,7-dihydro-5H-pyrrolo[2,3-b]pyrazine-2-carbonyl)-3,3-dimethylpiperazin-1-yl)-2,4-dimethylnicotinic acid] in this work. An IC50 of under 500 nM was found for Cc1cc(N2CCN(C(=O)c3ccc4c(n3)C(C)(C)CN4c3ccc(C4CC4)cc3)C(C)(C)C2)nc(C)c1C(=O)O [Example 279, 6-(4-(1-(4-cyclopropylphenyl)-3,3-dimethyl-2,3-dihydro-1H-pyrrolo[3,2-b]pyridine-5-carbonyl)-3,3-dimethylpiperazin-1-yl)-2,4-dimethylnicotinic acid] in this work. An IC50 of under 500 nM was found for CC1(C)CC2(CN(c3ccc(F)c(F)c3)c3ncc(C(=O)N4CCNC(=O)C4(C)C)nc32)C1 [Example 282, 4-(5′-(3,4-difluorophenyl)-3,3-dimethyl-5′,6′-dihydrospiro[cyclobutane-1,7′-pyrrolo[2,3-b]pyrazine]-2′-carbonyl)-3,3-dimethylpiperazin-2-one] in this work.
